Like-named read-outs stand apart in the source and are kept apart here.
Key:
AsPC-1 (K-Ras G12D) [1] = experiment: Potency assay: pERK in AsPC-1 cells; format: cell-based; details: Homo sapiens
KRAS G12C = KRAS G12C (Homo sapiens, UniProt P01116+P62937, G12C); experiment: Ras-Raf disruption/FRET/MOA assay, KRAS G12C; format: biochemical; details: disruption of BRAF RBD binding, with Cyclophilin A; read-out: KRAS G12C FRET IC50
Source text: (§1) Disruption of B-Raf Ras-Binding Domain (BRAF^RBD) Interaction with K-Ras by Compounds of the Invention (Also Called a FRET Assay or an MOA Assay)
(§2) Note—The following protocol describes a procedure for monitoring disruption of K-Ras G12C (GMP-PNP) binding to BRAF^RBD by a compound of the invention. This protocol may also be executed substituting other Ras proteins or nucleotides, such as K-Ras G12D and K-Ras G13D.
(§3) The purpose of this biochemical assay was to measure the ability of test compounds to facilitate ternary complex formation between a nucleotide-loaded K-Ras isoform and Cyclophilin A; the resulting ternary complex disrupts binding to a BRAF^RBD construct, inhibiting K-Ras signaling through a RAF effector.
(§4) In assay buffer containing 25 mM HEPES pH 7.3, 0.002% Tween20, 0.1% BSA, 100 mM NaCl and 5 mM MgCl2, tagless Cyclophilin A, His6-K-Ras-GMPPNP, and GST-BRAF^RBD were combined in a 384-well assay plate at final concentrations of 25 μM, 12.5 nM, and 50 nM, respectively. Compound was present in plate wells as a 10-point 3-fold dilution series starting at a final concentration of 30 μM. After incubation at 25° C. for 3 hours, a mixture of anti-His Eu-W1024 and anti-GST allophycocyanin was then added to assay sample wells at final concentrations of 10 nM and 50 nM, respectively, and the reaction incubated for an additional 1.5 hours. […] Compounds that facilitate disruption of a K-Ras:RAF complex were identified as those eliciting a decrease in the TR-FRET ratio relative to DMSO control wells.

AsPC-1 (K-Ras G12D) [2] = experiment: CellTiter-Glo cell viability assay, AsPC-1; format: cell-based; details: Homo sapiens, ASPC1, 120 h
Method in brief: (§5)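 Percent-of-DMSO luminescence values (CellTiter-Glo, day 5, plates equilibrated ~30 minutes at ambient temperature) were curve-fitted using a 4-parameter logistic equation; compounds had been added straight into wells containing the cells.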

NCI-H358 (K-Ras G12C) = experiment: CellTiter-Glo cell viability assay, H358; format: cell-based; details: Homo sapiens, NCI-H358, 120 h
Method in brief: as §5

KRAS G12D = KRAS G12D (Homo sapiens, UniProt P01116+P62937, G12D); experiment: Ras-Raf disruption/FRET/MOA assay, KRAS G12D; format: biochemical; details: disruption of BRAF RBD binding, with Cyclophilin A; read-out: KRAS G12D FRET IC50
Source text: as §1, §2, §3, §4

KRAS G12V = KRAS G12V (Homo sapiens, UniProt P01116+P62937, G12V); experiment: Ras-Raf disruption/FRET/MOA assay, KRAS G12V; format: biochemical
Source text: as §1, §2, §3, §4

[3] = ASPC1, AsPC-1 cells, K-Ras G12D, read-out: pERK EC50 (AsPC-1 KRAS G12D)
[4] = AsPC-1, K-Ras G12D, 5-day treatment, read-out: AsPC-1 Cell Viability IC50
[5] = NCI-H358, K-Ras G12C, 5-day treatment, read-out: H358 Cell Viability IC50
[6] = disruption of BRAF RBD binding, with Cyclophilin A, read-out: KRAS G12V FRET IC50
[7] = read-out: H358 Cell Viability IC50, NCI-H358, K-Ras G12C, 5-day treatment

KRAS G12V, sequence (P01116 1-169 isoform P01116-2 G12V limits assumed): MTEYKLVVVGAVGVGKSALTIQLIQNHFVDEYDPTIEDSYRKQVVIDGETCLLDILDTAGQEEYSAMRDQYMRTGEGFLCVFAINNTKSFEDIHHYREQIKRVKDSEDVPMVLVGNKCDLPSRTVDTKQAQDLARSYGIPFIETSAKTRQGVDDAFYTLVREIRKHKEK
KRAS G12V, sequence (P62937 whole entry): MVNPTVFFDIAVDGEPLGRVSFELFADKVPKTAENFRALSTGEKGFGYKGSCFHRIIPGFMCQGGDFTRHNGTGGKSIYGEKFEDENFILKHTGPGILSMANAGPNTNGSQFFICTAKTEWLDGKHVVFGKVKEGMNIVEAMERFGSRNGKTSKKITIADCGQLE
KRAS G12C, sequence (P01116 1-169 isoform P01116-2 G12C limits assumed): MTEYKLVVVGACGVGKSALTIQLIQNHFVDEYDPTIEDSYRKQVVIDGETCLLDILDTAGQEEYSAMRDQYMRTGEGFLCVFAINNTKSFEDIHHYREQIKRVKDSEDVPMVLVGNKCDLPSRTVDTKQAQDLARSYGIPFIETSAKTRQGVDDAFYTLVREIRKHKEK
KRAS G12C, sequence (P62937 whole entry, the tested form may be a part): as the sequence (P62937 whole entry) above
KRAS G12D, sequence (P01116 1-169 isoform P01116-2 G12D limits assumed): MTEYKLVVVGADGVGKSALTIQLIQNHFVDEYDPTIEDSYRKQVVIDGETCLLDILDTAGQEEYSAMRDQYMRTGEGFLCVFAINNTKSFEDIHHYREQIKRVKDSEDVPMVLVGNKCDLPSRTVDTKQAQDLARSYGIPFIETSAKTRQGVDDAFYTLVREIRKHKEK
KRAS G12D, sequence (P62937 whole entry): as the sequence (P62937 whole entry) above

Compound: CCn1c(-c2cccnc2[C@H](C)OC)c2c3cc(ccc31)-c1csc(n1)C[C@H](NC(=O)[C@H](C(C)C)N(C)C(=O)N1CC(N(C)C(=O)[C@H]3CN3)C1)C(=O)N1CCC[C@H](N1)C(=O)OCC(C)(C)C2 (atropisomer, axis not shown) [Compound 218]
- EC50 (AsPC-1 (K-Ras G12D) [1]; [3]): < 5 µM
- IC50 (KRAS G12C): 0.1 to 1 µM
- IC50 (AsPC-1 (K-Ras G12D) [2]; [4]): 1 to 10 µM

Compound: CCn1c(-c2cnccc2COC)c2c3cc(ccc31)-c1cccc(c1)C[C@H](NC(=O)[C@H](C(C)C)N(C)C(=O)CCN=C=NCCCN1CCOCC1)C(=O)N1CCC[C@H](N1)C(=O)OCC(C)(C)C2 [17 A and B]
- EC50 (AsPC-1 (K-Ras G12D) [1]; [3]): < 5 µM
- IC50 (NCI-H358 (K-Ras G12C); [5]): 1 to 10 µM
- IC50 (KRAS G12C): 0.1 to 1 µM
- IC50 (AsPC-1 (K-Ras G12D) [2]; [4]): 1 to 10 µM

Compound: CCCN=C=NCCC(=O)N(C)[C@H](C(=O)N[C@H]1Cc2cccc(c2)-c2ccc3c(c2)c(c(-c2cnccc2COC)n3CC)CC(C)(C)COC(=O)[C@@H]2CCCN(N2)C1=O)C(C)C [22 A and B]
- IC50 (KRAS G12D): 1 to 10 µM
- IC50 (NCI-H358 (K-Ras G12C); [5]): 1 to 10 µM
- IC50 (AsPC-1 (K-Ras G12D) [2]; [4]): 1 to 10 µM

Compound: CCn1c(-c2cnccc2COC)c2c3cc(ccc31)-c1cccc(c1)C[C@H](NC(=O)[C@H](C(C)C)N(C)C(=O)CCCN=C=NCCCOC)C(=O)N1CCC[C@H](N1)C(=O)OCC(C)(C)C2 [69 A and B]
- IC50 (NCI-H358 (K-Ras G12C); [5]): 1 to 10 µM
- IC50 (AsPC-1 (K-Ras G12D) [2]; [4]): 1 to 10 µM
- IC50 (KRAS G12V; [6]): > 10 µM

Compound: CCn1c(-c2cnccc2COC)c2c3cc(ccc31)-c1cc(O)cc(c1)C[C@H](NC(=O)[C@@H](CCNC(=O)NCCCl)C(C)C)C(=O)N1CCC[C@H](N1)C(=O)OCC(C)(C)C2 [Compound 26]
- IC50 (NCI-H358 (K-Ras G12C); read-out: H358 Cell Viability IC50): 1 to 10 µM
- IC50 (KRAS G12V; [6]): > 10 µM

Compound: CCn1c(-c2cccnc2COC)c2c3cc(ccc31)-c1cc(O)cc(c1)C[C@H](NC(=O)[C@H](C(C)C)N(C)C(=O)CCNC1=NCCO1)C(=O)N1CCC[C@H](N1)C(=O)OCC(C)(C)C2 [Compound 27]
- IC50 (NCI-H358 (K-Ras G12C); [5]): > 10 µM
- IC50 (KRAS G12V; [6]): > 10 µM

Compound: CCn1c(-c2cccnc2COC)c2c3cc(ccc31)-c1cc(O)cc(c1)C[C@H](NC(=O)[C@H](C(C)C)N(C)C(=O)CNC1=NCCO1)C(=O)N1CCC[C@H](N1)C(=O)OCC(C)(C)C2 [Compound 28]
- IC50 (NCI-H358 (K-Ras G12C); [5]): > 10 µM
- IC50 (AsPC-1 (K-Ras G12D) [2]; [4]): > 10 µM
- IC50 (KRAS G12V; [6]): > 10 µM

Compound: CCn1c(-c2cnccc2COC)c2c3cc(ccc31)-c1cc(O)cc(c1)C[C@H](NC(=O)[C@@H](CN(C)C(=O)[C@@H]1CN1)C(C)C)C(=O)N1CCC[C@H](N1)C(=O)OCC(C)(C)C2 [Compound 60]
- IC50 (NCI-H358 (K-Ras G12C); [5]): 1 to 10 µM
- IC50 (KRAS G12C): > 10 µM
- IC50 (AsPC-1 (K-Ras G12D) [2]; [4]): 1 to 10 µM
- IC50 (KRAS G12V; [6]): > 10 µM

Compound: CCn1c(-c2cnccc2COC)c2c3cc(ccc31)-c1cccc(c1)C[C@H](NC(=O)[C@H](C(C)C)N(C)C(=O)CCN=C=Nc1ccccc1COC)C(=O)N1CCC[C@H](N1)C(=O)OCC(C)(C)C2 [Compound 63]
- IC50 (NCI-H358 (K-Ras G12C); [5]): 0.1 to 1 µM
- IC50 (AsPC-1 (K-Ras G12D) [2]; [4]): 1 to 10 µM
- IC50 (KRAS G12V; [6]): > 10 µM

Compound: CCn1c(-c2cnccc2COC)c2c3cc(ccc31)-c1cccc(c1)C[C@H](NC(=O)[C@H](C(C)C)N1CC[C@H](CN=C=Nc3ccc(OC)cc3)C1)C(=O)N1CCC[C@H](N1)C(=O)OCC(C)(C)C2 [Compound 81]
- IC50 (AsPC-1 (K-Ras G12D) [2]; [4]): 1 to 10 µM
- IC50 (KRAS G12V; [6]): > 10 µM

Compound: CCn1c(-c2cnccc2COC)c2c3cc(ccc31)-c1cc(O)cc(c1)C[C@H](NC(=O)[C@@H](CN(C)C(=O)[C@H]1CN1)C(C)C)C(=O)N1CCC[C@H](N1)C(=O)OCC(C)(C)C2 [Compound 99]
- IC50 (KRAS G12C): > 10 µM
- IC50 (AsPC-1 (K-Ras G12D) [2]; [4]): > 10 µM
- IC50 (KRAS G12V; [6]): > 10 µM

Compound: CCn1c(-c2cccnc2[C@H](C)OC)c2c3cc(ccc31)-c1cc(O)cc(c1)C[C@H](NC(=O)[C@H](C(C)C)N(C)C(=O)C1CC3(C1)CN(C(=O)[C@H]1CN1)C3)C(=O)N1CCC[C@H](N1)C(=O)OCC(C)(C)C2 [Compound 181]
- IC50 (KRAS G12D): 0.1 to 1 µM
- IC50 (AsPC-1 (K-Ras G12D) [2]; [4]): > 10 µM

Compound: CCn1c(-c2cccnc2COC)c2c3cc(ccc31)-c1cc(O)cc(c1)C[C@H](NC(=O)[C@H](C(C)C)N(C)C(=O)CCNC(=O)NCCCl)C(=O)N1CCC[C@H](N1)C(=O)OCC(C)(C)C2 [Example 25, (2S)-2-(3-(3-(2-chloroethyl)ureido)-N-methylpropanamido)-N-((6^3S,4S)-1^1-ethyl-2^5-hydroxy-1^2-(2-(methoxymethyl)pyridin-3-yl)-10,10-dimethyl-5,7-dioxo-6^1,6^2,6^3,6^4,6^5,6^6-hexahydro-1^1H-8-oxa-1(5,3)-indola-6(1,3)-pyridazina-2(1,3)-benzenacycloundecaphane-4-yl)-3-methylbutanamide]
- IC50 (NCI-H358 (K-Ras G12C); [7]): > 10 µM
- IC50 (KRAS G12V): > 10 µM

Compound: CCn1c(-c2cccnc2[C@H](C)OC)c2c3cc(ccc31)-c1cc(O)cc(c1)C[C@H](NC(=O)[C@H](C1CCCC1)N1CC[C@]3(CCN(C(=O)[C@H]4CN4)C3)C1=O)C(=O)N1CCC[C@H](N1)C(=O)OCC(C)(C)C2 [Example 175, (2S)-2-((S)-7-((R)-aziridine-2-carbonyl)-1-oxo-2,7-diazaspiro[4.4]nonan-2-yl)-2-cyclopentyl-N-((6^3S,4S)-1^1-ethyl-2^5-hydroxy-1^2-(2-((S)-1-methoxyethyl)pyridin-3-yl)-10,10-dimethyl-5,7-dioxo-6^1,6^2,6^3,6^4,6^5,6^6-hexahydro-1^1H-8-oxa-1(5,3)-indola-6(1,3)-pyridazina-2(1,3)-benzenacycloundecaphane-4-yl)acetamide]
- EC50 (AsPC-1 (K-Ras G12D) [1]; [3]): < 5 µM
- IC50 (NCI-H358 (K-Ras G12C); [5]): < 0.01 µM
- IC50 (AsPC-1 (K-Ras G12D) [2]; [4]): 0.01 to 0.1 µM

Compound: CCn1c(-c2cc(N3CCN(C)CC3)cnc2[C@H](C)OC)c2c3cc(ccc31)-c1cc(O)cc(c1)C[C@H](NC(=O)[C@H](C1CCCC1)N(C)C(=O)CN(C)C(=O)[C@H]1CN1)C(=O)N1CCC[C@H](N1)C(=O)OCC(C)(C)C2 [Example 209, (2R)—N-(2-(((1S)-1-cyclopentyl-2-(((6^3S,4S)-1^1-ethyl-2^5-hydroxy-1^2-(2-((S)-1-methoxyethyl)-5-(4-methylpiperazin-1-yl)pyridin-3-yl)-10,10-dimethyl-5,7-dioxo-6^1,6^2,6^3,6^4,6^5,6^6-hexahydro-1^1H-8-oxa-1(5,3)-indola-6(1,3)-pyridazina-2(1,3)-benzenacycloundecaphane-4-yl)amino)-2-oxoethyl)(methyl)amino)-2-oxoethyl)-N-methylaziridine-2-carboxamide]
- EC50 (AsPC-1 (K-Ras G12D) [1]; ASPC1, read-out: pERK EC50 (AsPC-1 KRAS G12D)): < 5 µM
- IC50 (NCI-H358 (K-Ras G12C); [7]): < 0.01 µM
- IC50 (AsPC-1 (K-Ras G12D) [2]; read-out: AsPC-1 Cell Viability IC50, AsPC-1, K-Ras G12D, 5-day treatment): < 0.01 µM

Compound: CCn1c(-c2cccnc2[C@H](C)OC)c2c3cc(ccc31)-c1cc(O)cc(c1)C[C@H](NC(=O)[C@H](C1CCCC1)N1CC[C@]3(CCN(C(=O)[C@@H]4N[C@@H]4C4CC4)C3)C1=O)C(=O)N1CCC[C@H](N1)C(=O)OCC(C)(C)C2 [Example 214, (2S)-2-cyclopentyl-2-((S)-7-((2R,3R)-3-cyclopropylaziridine-2-carbonyl)-1-oxo-2,7-diazaspiro[4.4]nonan-2-yl)-N-((6^3S,4S)-1^1-ethyl-2^5-hydroxy-1^2-(2-((S)-1-methoxyethyl)pyridin-3-yl)-10,10-dimethyl-5,7-dioxo-6^1,6^2,6^3,6^4,6^5,6^6-hexahydro-1^1H-8-oxa-1(5,3)-indola-6(1,3)-pyridazina-2(1,3)-benzenacycloundecaphane-4-yl)acetamide]
- EC50 (AsPC-1 (K-Ras G12D) [1]; [3]): < 5 µM
- IC50 (NCI-H358 (K-Ras G12C); [5]): 0.01 to 0.1 µM
- IC50 (AsPC-1 (K-Ras G12D) [2]; [4]): 0.01 to 0.1 µM

— patent US11739074B2, “Ras inhibitors” (Revolution Medicines, Inc., priority 2019, dated 2023)
